Assay results: US20110295006A1, “CYCLIC DIPEPTIDES AS FEED ADDITIVES” (EVONIK DEGUSSA GMBH, priority 2010, published 2011)

Columns and labels:
Litopenaeus vannamei = settings: feeding tests; Forster and Dominy 2006; cited from earlier work
ruminants = settings: disclosed in WO00/28835; cited from earlier work
[1] = test system: digestive enzymes from mirror carp; assay: In vitro digestion tests with digestive enzymes from mirror carp; format: in vitro ADME, Cyprinus carpio morpha noblis; settings: pH 9
Description: (§1) The diketopiperazines were digested in vitro with digestive enzymes from carnivorous rainbow trout and omnivorous mirror carp. For this, the enzymes were removed from the digestive tracts of fishes and shrimps. The enzyme solutions obtained were then added to the diketopiperazines. For better comparability of the digestibility of dipeptides of various species, identical conditions were selected for the in vitro digestion studies (37° C., pH 9).
a) Isolation of the Digestive Enzymes from Mirror Carp (Cyprinus carpio morpha noblis)
The digestive enzymes were isolated based on the method of EID and MATTY (Aquaculture 1989, 79, 111-119). For this, the intestine was removed from six one-year-old mirror carp (Cyprinus carpio morpha noblis), rinsed with water, cut open lengthwise and in each case the intestinal mucosa was scraped off. This was comminuted, together with crushed ice, in a mixer. The resultant suspension was treated with an ultrasonic rod, to disrupt any cells that were still intact. In order to separate the cell constituents and fat, the suspension was centrifuged for 30 minutes at 4° C., the homogenate was decanted off and sterilized with a trace of thimerosal. 49 ml of enzyme solution of the intestinal mucosa was obtained from 6 mirror carp. The solution was stored at 4° C. in the dark.
(§2) DD/LL-cyclo-Met-Met was taken up in TRIS/HCl buffer solution and the enzyme solution was added to it. As comparison and for assessing the purely chemical cleavage rate, in each case a blank was prepared without enzyme solution (see Table 1). A sample was taken from time to time and its composition was detected and quantified using a calibrated HPLC. The conversion was determined as the quotient of the content of methionine or methionylmethionine (Met-Met) and the content of DD/LL-cyclo-Met-Met (see FIG. 4).
The test from Example 11b) was carried out similarly, with the cyclic dipeptides cyclo-L-His-L-His and cyclo-D-Met-L-Leu (see FIGS. 5 and 6).

[2] = test system: digestive enzymes from rainbow trout; assay: In vitro digestion tests with digestive enzymes from rainbow trout; format: in vitro ADME, Oncorhynchus mykiss; settings: pH 9
Description: as §1
a) Isolation of the Digestive Enzymes from Rainbow Trout (Oncorhynchus mykiss)
The digestive enzymes were isolated based on the method of EID and MATTY (Aquaculture 1989, 79, 111-119). For this, the intestine was removed from five one-year-old rainbow trout (Oncorhynchus mykiss) and processed as described in Example 11. 56 ml of enzyme solution of the intestinal mucosa was obtained from 5 rainbow trout. The solution was stored in the dark at 4° C.
The in vitro studies were carried out as in Example 11. The conversion was determined as the quotient of the content of methionine or methionylmethionine (Met-Met) and the content of cyclo-Met-Met (see FIG. 3).
The test from Example 12b) was carried out similarly, with the cyclic dipeptides cyclo-D-Met-L-Phe and cyclo-D-Met-L-Lys (see FIGS. 7 and 8).

[3] = Blank without enzyme solution (purely chemical cleavage rate); format: physicochemical; settings: no enzyme solution
Description: as §2, with “4). […] [table] The in vitro studies were carried out as in Example 11. The conversion was determined as the quotient of the content of methionine or methionylmethionine (Met-Met) and the content of cyclo-Met-Met (see FIG. 3). […] [table] The in vitro studies were carried out as in Example 11. The conversion was determined as the quotient of the content of methionine or D-Met-L-Thr and the content of cyclo-D-Met-L-Thr (see FIG. 9). […] [table]” for “4).”

chicken = settings: Baker et al. 1982; cited from earlier work
[4] = Solubility (water, pH, bile/water mixtures); format: physicochemical
[5] = Leaching behavior from feed in water; format: physicochemical
[6] = Pelletizing and extrusion stability in feed production; format: physicochemical

Compound: CSCCC(N)C(=O)O (racemic) [DL-methionine]
- efficacy relative to L-methionine (Litopenaeus vannamei): same efficacy as L-methionine

Compound: CSCCC(O)C(=O)OC(C)C (centres unmarked) [HMBi]
- biological value (ruminants): at least 50%

Compound: CSCC[C@@H]1NC(=O)[C@@H](CCSC)NC1=O [cyclo-D-Met-L-Met]
- enzymatic cleavage by digestive enzymes of mirror carp ([1]; in vitro, 37° C.): can be cleaved
- enzymatic cleavage by digestive enzymes of rainbow trout ([2]; in vitro, 37° C.): can be cleaved

Compound: CSCC[C@@H]1NC(=O)[C@H](CCSC)NC1=O [cyclo-L-Met-L-Met]
- enzymatic cleavage by digestive enzymes of mirror carp [1]: can be cleaved
- enzymatic cleavage by digestive enzymes of rainbow trout [2]: can be cleaved

Compound: CSCCC1NC(=O)C(CCSC)NC1=O (centres unmarked) [DD/LL-cyclo-Met-Met, 3,6-bis[2-(methylthio)ethyl]-2,5-piperazinedione]
- enzymatic cleavage by digestive enzymes of mirror carp ([1]; in vitro, 37° C.): can be cleaved
- reaction in the blank to dipeptide DD/LL-Met-Met or DL-methionine ([3]; TRIS/HCl buffer pH 9.5, bile, 37° C.): hardly any reaction

Compound: poly-L-methionine
- biological value (chicken): no biological value

Compound: CSCCC1NC(=O)C(CCSC)NC1=O (racemic) [DD/LL/meso-cyclo-Met-Met, 3,6-bis[2-(methylthio)ethyl]-2,5-piperazinedione]
- enzymatic cleavage by digestive enzymes of rainbow trout ([2]; in vitro, 37° C.): can be cleaved
- conversion in the blank to dipeptide DD/LL/meso-Met-Met or DL-methionine ([3]; TRIS/HCl buffer pH 9.5, 37° C.): hardly any conversion
- solubility [4]: low solubility
- leaching behavior [5]: particularly good leaching behavior
- pelletizing and extrusion stability [6]: good pelletizing and extrusion stability

Compound: CSCC[C@H]1NC(=O)[C@H]([C@@H](C)O)NC1=O [cyclo-D-Met-L-Thr, 3-(R)-[2-(methylthio)ethyl]-6-(S)-(1-(R)-hydroxyethyl)-2,5-piperazinedione]
- conversion in the blank to dipeptide D-Met-L-Thr or free amino acids ([3]; TRIS/HCl buffer pH 9.5, 37° C.): hardly any conversion

Compound: CSCC[C@H]1NC(=O)[C@@H](CCSC)NC1=O [cyclo-D-Met-D-Met]
- enzymatic cleavage by digestive enzymes of mirror carp ([1]; in vitro, 37° C.): can be cleaved
- enzymatic cleavage by digestive enzymes of rainbow trout ([2]; in vitro, 37° C.): can be cleaved
